Series [1] concerns rat bladders (CYP-induced cystitis). The experiment in a line: Histological analysis of rat bladders from the CYP cystitis experiment. Format: in vivo. The method, then:
Rat bladders from the experiments of Example 1 were fixed in formalin, embedded in paraffin and stained with hematoxylin and eosin by methods known in the art.
Histopathological examination was performed on at least 10 sections per bladder. Different inflammatory parameters were considered:
infiltration of inflammatory cells (mostly lymphocytes and monocytes)
and were scored as follows: 0=normal without any sign of inflammation, 1=mild, 2=moderate, 3=severe, 4=severe signs diffused across all of the section.
Table 3 refers to vehicle treated animals and Table 4 to “Compound A” treated animals. Each inflammatory parameter was scored from 0 to 4, where 0 is normal and 4 the most severe symptom.

Series [2] can be described thus: Calcemia assessment in CYP rats (colorimetric serum calcium assay). Format: in vivo, rat. The settings on record: both dosage levels (30 and 75 ug/kg); limit of normal range 10.7 mg/dl in rats. The method, then: Serum calcemia was evaluated by a commercially available calorimetric assay (Calcium Dry-Fast, Sentinel CH. Italy). Briefly, 10 ul serum were added to 100 ul reaction solution prepared according to the manufacturer's procedure in a 96-wells plate. After 5 min incubation at RT samples were read at 570 nm with a spectrophotometer and the calcium levels were calculated in triplicate by using a standard reference as directed.

The subject of the next series is ovalbumin specific IgE. As to the kind of experiment: Ova-specific IgE ELISA, allergic IC in mice. The settings on record: 75 ug/kg oral vs vehicle; ovalbumin-sensitized BALB/c mice. Format: in vivo, mouse. The protocol:
(§1) Mice (BALB/c, females 8 weeks old, weight 18-20 g, Charles River, Calco ITA) were sensitized by injecting 10 ug/mouse of chicken ovalbumin from Sigma (OVA, grade V) in the presence of 4 mg of alum (SERVA, Germany) by intraperitoneal injection, once a week for 4 weeks. This induces a sustained level of IgE detectable in serum.
(§2) One or two weeks after the last immunization boost, sensitized mice were anesthetized (1.5% Isoflurane) and then trans-urethrally catheterized (24 gauge, ¾ in.; Angiocath, Becton-Dickson). Slight digital pressure was applied the lower abdomen to drain the urine.
(§3) The urinary bladders were instilled with either 150 ul of either saline or OVA alone, (1 mg/150 ul) infused at a slow rate to avoid trauma and vesico-ureteral reflux and repeated twice within a 30-min interval with the syringe kept in place on the catheter for at least 30 min. Intravesical challenge was repeated 7-10 days after the first one with the same procedure.
Treatment Group: 10 mice were treated with oral vitamin D3 analogue (1-alpha-fluoro-25-hydroxy-16,23Ediene-26,27-bishomo-20-epi-cholecalciferol) Compound “B” for 14 days (daily dose of either 30 or 75 ug/kg). […]
Ova-specific IgE were measured according to the following procedure. […] Finally, 450 nm absorbance was recorded after the reaction was stopped.

Series [3] is described as follows: Body weight in allergic IC mice. Format: in vivo, mouse. Particulars: 75 ug/kg oral vs control animals; daily timepoints. The method, then: (§4) An ethanol stock solution of Compound B (1 mg/ml) was dissolved in Miglyol vehicle at the appropriate concentration. Control animals received the vehicle containing the same amount of ethanol. Drug (or vehicle) treatment was carried out by daily gavage after weighing the animal. Drug solution was prepared calculating a final volume of 100 ul/10 grams body weight, and treatment was started on the day of the first intravesical ovalbumin challenge, maintained daily, but discontinued over the weekends, for 12 days total treatment. FIG. 7 illustrates the timeline of the experiment.

A further series relates to IL-13. As to the kind of experiment: Taq-Man analysis of bladder mRNA, allergic IC in mice: IL-13. Format: in vivo, mouse. Particulars: ovalbumin challenged. The method, then: as §1, §2, §3, §4
(§5) Total RNA was extracted from one half of bladder by using RNeasy Mini kit (Qiagen), treated with DNase 1 (Qiagen) and reverse transcription performed with Reverse Transcription Reagent (Applied Biosystems) with Random Hexamers (according to the manufacturer's instructions). cDNA was synthesized from 1 ug of RNA. Real-Time PCR was performed in 96-well optical reaction plates (Applied Biosystems). For each sample we amplified both the target gene and the housekeeping gene (HPRT) in different wells (singleplex) and in duplicate. The amplification Master Mix was prepared according to the following protocol (volumes refer to a single well with a final volume of 40 ul/well)): 2× TaqMan® R Universal PCR Master Mix (Applied Biosystems, 4304437): 20 ul; 20× Assay target gene: 2 ul; H2O: 8 ul; cDNA: 10 ul. Reaction was run on an SDS 7000 (Applied Biosystems) instruments, with the following amplification program: 2′ at 50° C.; 10′ at 95° C.; 15″ at 95° C. and 1′ at 60° C. for 40 cycles; Cycle threshold (Ct) values were exported into Excel Worksheets for analysis and relative quantitations were performed using the ΔCt method. All primers used carried the FAM reporter.
(§6) Experiments in Example 7 were performed according to the general procedures described previously in Example 6. Mice were challenged with saline (untreated) or ovalbumin (treatment with vehicle or one of Compounds C-I at a dosage indicated in Table 6 in ug/kg).

The next series deals with MCPT2. The experiment in a line: Taq-Man analysis of bladder mRNA, allergic IC in mice: MCPT2. Format: in vivo, mouse. Particulars: ovalbumin challenged; 30 and 75 ug/kg oral, dose dependent; pooled samples. The protocol: as §1
One or two weeks after the last immunization boost, sensitized mice were anesthetized (1.5% Isoflurane) and then trans-urethrally catheterized (24 gauge, ¾ in.; Angiocath, Becton-Dickson). Slight digital pressure was applied the lower abdomen to drain the urine. […]
Total RNA was extracted from one half of bladder by using RNeasy Mini kit (Qiagen), treated with DNase 1 (Qiagen) and reverse transcription performed with Reverse Transcription Reagent (Applied Biosystems) with Random Hexamers (according to the manufacturer's instructions). cDNA was synthesized from 1 ug of RNA. […] Reaction was run on an SDS 7000 (Applied Biosystems) instruments, with the following amplification program: 2′ at 50° C.; 10′ at 95° C.; 15″ at 95° C. and 1′ at 60° C. for 40 cycles; Cycle threshold (Ct) values were exported into Excel Worksheets for analysis and relative quantitations were performed using the ΔCt method. […]

The test system of the next series is FcεR1α. The experiment in a line: Taq-Man analysis of bladder mRNA, allergic IC in mice: FcεR1α. Format: in vivo, mouse. Particulars: ovalbumin challenged. The method, then:
as §1, §2, §3, §4, §5, §6

The subject of a further series is MMCP4. As to the kind of experiment: Taq-Man analysis of bladder mRNA, allergic IC in mice: MMCP4. Format: in vivo, mouse. Particulars: ovalbumin challenged; 75 ug/kg oral; individual animals. The protocol: as §1, §2, §3, §4, §5, §6
[4] abbreviates: individual rats, score 0 (normal) to 4 (most severe), Compound A 0.1 μg/kg oral 14 days.
Setting [5] is: mean of 4 Compound A treated rats, score 0-4.
[6] abbreviates: 75 ug/kg oral, individual animals.
[7] abbreviates: 30 and 75 ug/kg oral, dose dependent, pooled samples.

Molecules are shown by their SMILES. Several values for one entry are separate records, joined by “and”; a condition that tells them apart may be missing. Equal values may be shown once.

This is an account of results in patent US20080039434A1, “Treatment of Interstitial Cystitis with Vitamin D Compounds” (BioXell S. p.A., priority 2004, published 2008).

`CC(=O)OC1C/C(=C/C=C2\CCC[C@]3(C)C(C(C)C/C=C\C(O)(C(F)(F)F)C(F)(F)F)=CCC23)C[C@@H](OC(C)=O)C1` (stereo partly shown) [Compound A, 1,3-Di-O-acetyl-1,25-dihydroxy-16,23Z-diene-26,27-hexafluoro-19-nor-cholecalciferol]: in series [1] (setting [4]), the “EPITHELIAL EROSION histological score” value was 0; the FIBROSIS histological score worked out at 0; the HEMOSTASIS histological score was 0 and 1 and 0.5 (2×); the INFILTRATION histological score was 0.5 (2×) and 1 and 2. Also, the EDEMA histological score in series [1] (individual rats, score 0 normal, 1 mild, 2 moderate, 3 severe, 4 severe diffused, Compound A 0.1 μg/kg oral 14 days) was 0.5 and 0 (2×) and 2. Besides, in series [1] (setting [5]), the “EDEMA histological score, MEAN” value worked out at 0.63; the “EPITHELIAL EROSION histological score, MEAN” value came out at 0; the “FIBROSIS histological score, MEAN” value turned out to be 0; the “HEMOSTASIS histological score, MEAN” value was determined as 0.5. Further, in series [1] (setting [5]), the “INFILTRATION histological score, MEAN” value amounted to 1.
For `C=C1/C(=C\C=C2/CCC[C@]3(C)C([C@@H](C)C/C=C/C(O)(CC)CC)=CC[C@@H]23)C[C@@H](O)C[C@@H]1F` [Compound B, 1-alpha-fluoro-25-hydroxy-16,23E-diene-26,27-bishomo-20-epi-cholecalciferol], the “average serum calcium levels” value in series [2] is on record as “only slightly but not significantly elevated”. Moreover, the “ovalbumin specific IgE in serum” value in the series on ovalbumin specific IgE is given as “no significant changes”. In series [3], the body weight entry is “no significant difference”. Besides, the “expression of inflammatory marker IL-13” value is listed as “down-modulates” in the series with IL-13 (setting [6]) and “significantly reduces” in the series with IL-13 (setting [7]). Besides, in the series with MCPT2, the “expression of inflammatory marker MCPT2” value was “significantly reduces”. In addition, the “expression of inflammatory marker FcεR1α” value is “down-modulates” in the series on FcεR1α (setting [6]) and “significantly reduces” with FcεR1α (setting [7]). Moreover, the “expression of inflammatory marker MMCP4” value with MMCP4 is “down-modulates”.
